Measurements published in patent US20130210061A1, “Method of Screening Damp-Dry Malodor Inhibitor and Method of Evaluating Damp-Dry Malodor Inhibitor” (KAO CORPORATION, priority 2010, published 2013).

Experiments:
Test in all cases: Example 1: quantification of 4M3H on cotton fabric with 14-methylhexadecanoic acid
M. osloensis NCIMB10693 = type: cell-based, Moraxella osloensis; settings: M. osloensis NCIMB10693, cotton fabric with 14-methylhexadecanoic acid, 37° C., 24 hours, vs sterilized water
Description: (§1) 10 mL of methanol was added to the towel that had been left to stand still for 24 hours, and 1 mL of the methanol was mixed with 1 mL of ADAM (9-anthrydiazomethanene, manufactured by Funakoshi Corp., 0.1 w/v %). The mixture was left to stand for 60 minutes at room temperature, and thus derivatization was carried out.
(§2) Thereafter, 10 μL of the solution was analyzed by using LC-FL (liquid chromatography apparatus: HITACHI ELITE LaChrom (trade name, manufactured by Hitachi, Ltd.), column: Lichrosphere 100 RP-8(e) (trade name, manufactured by Agilent Technologies, Inc., 5 μm×125 mm×4 mmφ), column temperature: 40° C., eluent a mixed solution of acetonitrile/water=7/3 (volume ratio), flow rate: 1.0 mL/min, detector: excitation wavelength (365 nm), measurement wavelength (412 nm)), and thereby quantification of 4M3H thus produced was carried out. In regard to the amount of production of 4M3H, a sample which produced 4M3H in an amount of more than 1 μg was rated as “[…]”; a sample which produced 4M3H in an amount of more than 0.1 μg and 1 μg or less was rated as “∘”; a sample which produced 4M3H in an amount of more than 0 μg and 0.1 μg or less was rated as “Δ”; and a sample in which no 4M3H was detected was rated as “x”.
(§3) One platinum loop of each of Moraxella osloensis NCIMB10693, Moraxella sp. 4-1, Psychrobacter pacificensis NBRC103191, Psychrobacter glacincola NCIMB101053, Pseudomonas alcaligenes No. 41, Acinetobacter calcoaceticus HH2BD-49, Saccaromyces cerevisiae NBRC1661, Rhodotorula mucilaginosa NBRC0909 and Rhodotorula slooffiae 13c was inoculated into 5 mL of a SCD liquid medium (manufactured by Nihon Pharmaceutical Co., Ltd.), and the microbial cells were subjected to shaking culture (160 rpm) at 35° C. for 24 hours. The microbial cells obtained after culture were centrifuged (8000×g, 10 minutes), the supernatant was removed, and then the microbial cells were suspended in 5 mL of physiological saline. The suspension was centrifuged again (8000×g, 10 minutes), subsequently the supernatant was removed, and a microbial suspension was prepared by using physiological saline such that the OD600 would be 0.1.
(§4) Furthermore, 0.1 mL each of 10-ppm or 100-ppm aqueous solutions of the compounds shown in the following Table 6 was applied on the fabric described above. As a control, a fabric on which sterilized water was applied instead of the compounds described below was also prepared.
(§5) On a plain-woven cotton fabric prepared as described above, 0.1 mL each of the various microbial suspensions was inoculated, and the samples were left to stand still under humidified conditions at 37° C. for 24 hours and were subjected to an evaluation such as described below.
(§6) Quantification of 4M3H was carried out by the same method as that used in Test Example 3, and by taking as a reference the 4M3H production amount of a sample on which sterilized water was applied as a test substance, the 4M3H production amounts in the case of applying other test substances were evaluated on the basis of the following criteria. • A: (4M3H production amount in the case of applying a test substance)<( 1/100 of the 4M3H production amount in the case of applying sterilized water) • B: ( 1/100 of the 4M3H production amount in the case of applying sterilized water)≦(4M3H production amount in the case of applying a test substance)<( 1/10 of the 4M3H production amount in the case of applying sterilized water) • C: ( 1/10 of the 4M3H production amount in the case of applying sterilized water)≦(4M3H production amount in the case of applying a test substance)<(4M3H production amount in the case of applying sterilized water) • D: (4M3H production amount in the case of applying sterilized water)≦(4M3H production amount in the case of applying a test substance)

Moraxella sp. 4-1 = type: cell-based; settings: 37° C., 24 hours, vs sterilized water
Description: as §1, §2, §3, §4, §5, §6

[1] = system: P. pacificensis NBRC103191; type: cell-based, Psychrobacter pacificensis; settings: 37° C., 24 hours, vs sterilized water
Description: as §1, §2, §3, §4, §5, §6

P. glacincola NBRC101053 = type: cell-based, Psychrobacter glacincola; settings: 37° C., 24 hours, vs sterilized water
Description: as §1, §2, §3, §4, §5, §6

P. alcaligenes No. 41 = type: cell-based, Pseudomonas alcaligenes; settings: 37° C., 24 hours, vs sterilized water
Description: as §1, §2, §3, §4, §5, §6

[2] = system: A. calcoaceticus HH2BD-49; type: cell-based, Acinetobacter calcoaceticus; settings: 37° C., 24 hours, vs sterilized water
Description: as §1, §2, §3, §4, §5, §6

S. cerevisiae NBRC1661 = type: cell-based, Saccaromyces cerevisiae; settings: 37° C., 24 hours, vs sterilized water
Description: as §1, §2, §3, §4, §5, §6

R. muculaginosa NBRC0909 = type: cell-based, Rhodotorula mucilaginosa; settings: 37° C., 24 hours, vs sterilized water
Description: as §1, §2, §3, §4, §5, §6

R. slooffiae 13c = type: cell-based, Rhodotorula slooffiae; settings: 37° C., 24 hours, vs sterilized water
Description: as §1, §2, §3, §4, §5, §6

[3] = Faucicola osloensis, 100 ppm test substance, read-out: Production amount of 4M3H

Row | Compound | activity at 100 ppm (M. osloensis NCIMB10693; [3]) | Production amount of 4M3H (Moraxella sp. 4-1; 100 ppm test substance) | Production amount of 4M3H ([1]; 100 ppm test substance) | Production amount of 4M3H (P. glacincola NBRC101053; 100 ppm test substance) | Production amount of 4M3H (P. alcaligenes No. 41; 100 ppm test substance) | Production amount of 4M3H ([2]; 100 ppm test substance) | Production amount of 4M3H (S. cerevisiae NBRC1661; 100 ppm test substance) | Production amount of 4M3H (R. muculaginosa NBRC0909; 100 ppm test substance) | Production amount of 4M3H (R. slooffiae 13c; 100 ppm test substance) | activity at 10 ppm (M. osloensis NCIMB10693; Faucicola osloensis, 10 ppm test substance, read-out: Production amount of 4M3H) | Production amount of 4M3H (Moraxella sp. 4-1; 10 ppm test substance) | Production amount of 4M3H ([1]; 10 ppm test substance) | Production amount of 4M3H (P. glacincola NBRC101053; 10 ppm test substance) | Production amount of 4M3H (P. alcaligenes No. 41; 10 ppm test substance) | Production amount of 4M3H ([2]; 10 ppm test substance) | Production amount of 4M3H (S. cerevisiae NBRC1661; 10 ppm test substance) | Production amount of 4M3H (R. muculaginosa NBRC0909; 10 ppm test substance) | Production amount of 4M3H (R. slooffiae 13c; 10 ppm test substance) | Production amount of 4M3H (M. osloensis NCIMB10693; 100 ppm test substance)
1 | CCCCCCCC/C=C\CCCCCCCC(=O)O [Oleic acid] | 1 to 10% | B (( 1/100 of the 4M3H production amount in the case of applying sterilized water)≦(4M3H production amount in the case of applying a test substance)<( 1/10 of the 4M3H production amount in the case of applying sterilized water)) | C (( 1/10 of the 4M3H production amount in the case of applying sterilized water)≦(4M3H production amount in the case of applying a test substance)<(4M3H production amount in the case of applying sterilized water)) | A ((4M3H production amount in the case of applying a test substance)<( 1/100 of the 4M3H production amount in the case of applying sterilized water)) | C (( 1/10 of the 4M3H production amount in the case of applying sterilized water)≦(4M3H production amount in the case of applying a test substance)<(4M3H production amount in the case of applying sterilized water)) | C (( 1/10 of the 4M3H production amount in the case of applying sterilized water)≦(4M3H production amount in the case of applying a test substance)<(4M3H production amount in the case of applying sterilized water)) | B (( 1/100 of the 4M3H production amount in the case of applying sterilized water)≦(4M3H production amount in the case of applying a test substance)<( 1/10 of the 4M3H production amount in the case of applying sterilized water)) | B (( 1/100 of the 4M3H production amount in the case of applying sterilized water)≦(4M3H production amount in the case of applying a test substance)<( 1/10 of the 4M3H production amount in the case of applying sterilized water)) | C (( 1/10 of the 4M3H production amount in the case of applying sterilized water)≦(4M3H production amount in the case of applying a test substance)<(4M3H production amount in the case of applying sterilized water)) | – | – | – | – | – | – | – | – | – | –
2 | Cc1ccc(C(C)C)c(O)c1 [Thymol] | < 1% | B (( 1/100 of the 4M3H production amount in the case of applying sterilized water)≦(4M3H production amount in the case of applying a test substance)<( 1/10 of the 4M3H production amount in the case of applying sterilized water)) | B (( 1/100 of the 4M3H production amount in the case of applying sterilized water)≦(4M3H production amount in the case of applying a test substance)<( 1/10 of the 4M3H production amount in the case of applying sterilized water)) | B (( 1/100 of the 4M3H production amount in the case of applying sterilized water)≦(4M3H production amount in the case of applying a test substance)<( 1/10 of the 4M3H production amount in the case of applying sterilized water)) | C (( 1/10 of the 4M3H production amount in the case of applying sterilized water)≦(4M3H production amount in the case of applying a test substance)<(4M3H production amount in the case of applying sterilized water)) | C (( 1/10 of the 4M3H production amount in the case of applying sterilized water)≦(4M3H production amount in the case of applying a test substance)<(4M3H production amount in the case of applying sterilized water)) | D ((4M3H production amount in the case of applying sterilized water)≦(4M3H production amount in the case of applying a test substance)) | A ((4M3H production amount in the case of applying a test substance)<( 1/100 of the 4M3H production amount in the case of applying sterilized water)) | C (( 1/10 of the 4M3H production amount in the case of applying sterilized water)≦(4M3H production amount in the case of applying a test substance)<(4M3H production amount in the case of applying sterilized water)) | 1 to 10% | C (( 1/10 of the 4M3H production amount in the case of applying sterilized water)≦(4M3H production amount in the case of applying a test substance)<(4M3H production amount in the case of applying sterilized water)) | D ((4M3H production amount in the case of applying sterilized water)≦(4M3H production amount in the case of applying a test substance)) | C (( 1/10 of the 4M3H production amount in the case of applying sterilized water)≦(4M3H production amount in the case of applying a test substance)<(4M3H production amount in the case of applying sterilized water)) | D ((4M3H production amount in the case of applying sterilized water)≦(4M3H production amount in the case of applying a test substance)) | D ((4M3H production amount in the case of applying sterilized water)≦(4M3H production amount in the case of applying a test substance)) | C (( 1/10 of the 4M3H production amount in the case of applying sterilized water)≦(4M3H production amount in the case of applying a test substance)<(4M3H production amount in the case of applying sterilized water)) | D ((4M3H production amount in the case of applying sterilized water)≦(4M3H production amount in the case of applying a test substance)) | D ((4M3H production amount in the case of applying sterilized water)≦(4M3H production amount in the case of applying a test substance)) | –
3 | Alkyl benzyl dimethyl ammonium chloride | – | D ((4M3H production amount in the case of applying sterilized water)≦(4M3H production amount in the case of applying a test substance)) | D ((4M3H production amount in the case of applying sterilized water)≦(4M3H production amount in the case of applying a test substance)) | C (( 1/10 of the 4M3H production amount in the case of applying sterilized water)≦(4M3H production amount in the case of applying a test substance)<(4M3H production amount in the case of applying sterilized water)) | D ((4M3H production amount in the case of applying sterilized water)≦(4M3H production amount in the case of applying a test substance)) | D ((4M3H production amount in the case of applying sterilized water)≦(4M3H production amount in the case of applying a test substance)) | C (( 1/10 of the 4M3H production amount in the case of applying sterilized water)≦(4M3H production amount in the case of applying a test substance)<(4M3H production amount in the case of applying sterilized water)) | D ((4M3H production amount in the case of applying sterilized water)≦(4M3H production amount in the case of applying a test substance)) | D ((4M3H production amount in the case of applying sterilized water)≦(4M3H production amount in the case of applying a test substance)) | – | – | – | – | – | – | – | – | – | D ((4M3H production amount in the case of applying sterilized water)≦(4M3H production amount in the case of applying a test substance))
